Results: US5328902A, “7-(substituted)-9-[(substituted glycyl)amido]-6-demethyl-6-deoxytetracyclines” (American Cyanamid Co., priority 1992, dated 1994)

How the values were obtained:
[1] = tested on: E. coli UBMS 88-1 Tet B; assay: microbe, parasite or virus in culture; format: cell-based; settings: E. coli UBMS 88-1 Tet B; 18 hours at 35° C.
[2] = tested on: E. coli J3272 Tet sens.; assay: MIC, agar dilution; format: cell-based
[3] = tested on: E. coli PRP1 Tet A; assay: microbe, parasite or virus in culture; format: cell-based; settings: E. coli PRP1 Tet A
[4] = tested on: E. coli MC 4100 TNIOC Tet B; assay: microbe, parasite or virus in culture; format: cell-based; settings: E. coli MC 4100 TNIOC Tet B
[5] = tested on: E. coli J3272 Tet C; assay: microbe, parasite or virus in culture; format: cell-based; settings: E. coli J3272 Tet C
[6] = tested on: E. coli UBMS 89-1 Tet M; assay: microbe, parasite or virus in culture; format: cell-based; settings: E. coli UBMS 89-1 Tet M
[7] = tested on: E. coli UBMS 89-2 Tet sens.; assay: MIC, agar dilution; format: cell-based; settings: E. coli UBMS 89-2 Tet sens.
[8] = tested on: E. coli J2175; assay: MIC, agar dilution; format: cell-based; settings: E. coli J2175
[9] = tested on: E. coli BAJ9003 IMP MUT; assay: microbe, parasite or virus in culture; format: cell-based; settings: E. coli BAJ9003 IMP MUT
[10] = tested on: E. coli UBMS 90-4 Tet M; assay: microbe, parasite or virus in culture; format: cell-based; settings: E. coli UBMS 90-4 Tet M
[11] = tested on: E. coli UBMS 90-5; assay: MIC, agar dilution; format: cell-based
[12] = tested on: E. coli #311 (MP); assay: MIC, agar dilution; format: cell-based; settings: E. coli #311 (MP)
[13] = tested on: E. coli ATCC 25922; assay: MIC, agar dilution; format: cell-based; settings: E. coli ATCC 25922
[14] = tested on: E. coli J3272 Tet D; assay: microbe, parasite or virus in culture; format: cell-based; settings: E. coli J3272 Tet D
[15] = tested on: S. mariescens FPOR 8733; assay: MIC, agar dilution; format: cell-based
[16] = tested on: Ps. acruginosa ATCC 27853; assay: MIC, agar dilution; format: cell-based; settings: Ps. acruginosa ATCC 27853
[17] = tested on: S. aureus NEMC 8769; assay: MIC, agar dilution; format: cell-based; settings: S. aureus NEMC 8769
[18] = tested on: S. aureus UBMS 88-4; assay: MIC, agar dilution; format: cell-based; settings: S. aureus UBMS 88-4
[19] = tested on: S. aureus UBMS 88-5 Tet M; assay: microbe, parasite or virus in culture; format: cell-based; settings: S. aureus UBMS 88-5 Tet M
[20] = tested on: S. aureus UBMS 88-7 Tet K; assay: microbe, parasite or virus in culture; format: cell-based; settings: S. aureus UBMS 88-7 Tet K
[21] = tested on: S. aureus UBMS 90-1 Tet M; assay: microbe, parasite or virus in culture; format: cell-based; settings: S. aureus UBMS 90-1 Tet M
[22] = tested on: S. aureus UBMS 90-3; assay: MIC, agar dilution; format: cell-based; settings: S. aureus UBMS 90-3
[23] = tested on: S. aureus IVES 2943; assay: MIC, agar dilution; format: cell-based; settings: S. aureus IVES 2943
[24] = tested on: S. aureus ROSE (MP); assay: MIC, agar dilution; format: cell-based; settings: S. aureus ROSE (MP)
[25] = tested on: S. aureus IVES 1 983; assay: MIC, agar dilution; format: cell-based; settings: S. aureus IVES 1 983
[26] = tested on: S. aureus ATCC 29213; assay: MIC, agar dilution; format: cell-based; settings: S. aureus ATCC 29213
[27] = tested on: S. hemolyticus AVHAH 88-3; assay: MIC, agar dilution; format: cell-based; settings: S. hemolyticus AVHAH 88-3
[28] = tested on: Enterococcus 12201; assay: MIC, agar dilution; format: cell-based; settings: Enterococcus 12201
[29] = tested on: the ribosome; assay: Reversibility of binding: bacterial growth resumes after washing; format: cell-based; settings: bacterial growth resumes when the compound is removed from the cultures by washing
Text: Therefore, the ability of these compounds to inhibit bacterial growth appears to be a direct consequence of its ability to inhibit protein synthesis at the ribosome level.

[30] = tested on: tetracycline sensitive and resistant Gram-positive and Gram-negative bacteria; assay: In vitro antibacterial activity, summary in words of Table I; format: cell-based
[31] = tested on: Wild Type S30 (wild type ribosomes, E. coli strain MRE600, tetracycline sensitive); assay: E. coli in vitro protein translation system, wild type S30; settings: for inhibition of protein synthesis occuring on wild type ribosomes: coupled transcription and translation system
[32] = tested on: S. aureus UBMS 90-2 Tet M; assay: microbe, parasite or virus in culture; format: cell-based; settings: S. aureus UBMS 90-2 Tet M
[33] = tested on: S. aureus SMITH (MP); assay: MIC, agar dilution; format: cell-based; settings: S. aureus SMITH (MP)
[34] = tested on: E. faecalis ATCC 29212; assay: MIC, agar dilution; format: cell-based; settings: E. faecalis ATCC 29212

Substance | MIC [2] [µg/mL] | MIC [3] [µg/mL] | MIC [4] [µg/mL] | MIC [5] [µg/mL] | MIC [6] [µg/mL] | MIC [7] [µg/mL] | MIC [8] [µg/mL] | MIC [10] [µg/mL] | MIC [11] [µg/mL] | MIC [12] [µg/mL] | MIC [13] [µg/mL] | MIC [14] [µg/mL] | MIC [15] [µg/mL] | MIC [16] [µg/mL] | MIC [17] [µg/mL] | MIC [18] [µg/mL] | MIC [19] [µg/mL] | MIC [20] [µg/mL] | MIC [21] [µg/mL] | MIC [22] [µg/mL] | also measured
[4S-(4alpha,12aalpha)]-4,7-Bis(dimethylamino)-1,4,4a,5,5a,6,11,12a-octahydro-3,10, 12,12a-tetrahydroxy-1,11-dioxo-9-[[(2-propenylamino)acetyl]amino]-2-naphthacenecarboxamide dihydrochloride | 0.5 | 8 | 1 | 1 | 0.5 | 0.5 | 0.5 | 0.5 | 0.5 | 0.5 | 0.5 | 0.25 | 8 | 16 | 0.12 | 0.25 | 0.25 | 8 | 0.5 | 0.25 | MIC [1]: 1 µg/mL; MIC [9]: 0.12 µg/mL; MIC [23]: 8 µg/mL; MIC [24]: 8 µg/mL; MIC [25]: 8 µg/mL; MIC [26]: 0.25 µg/mL; MIC [27]: 0.5 µg/mL; MIC [28]: 0.25 µg/mL; reversibility of binding to the ribosome [29]: bind reversibly; activity against E. coli tetA, E. coli tetC and E. coli tetD [30]: good activity; in vitro activity against tetracycline resistant strains containing tetM and tetB resistance determinants ([30]; S. aureus UBMS 88-5, 90-1, 90-2, E. coli UBMS 89-1, 90-4, 88-1, TN10C tetB): excellent; activity against recently isolated bacteria from clinical sources compared with minocycline ([30]; clinical isolates): superior to that of minocycline; activity against susceptible strains compared with minocycline ([30]; susceptible strains): equallyas effective as minocycline; % Inhibition Wild Type S30 ([31]; Conc. 0.06 mg/ml): 93%; % Inhibition Wild Type S30 ([31]; Conc. 1.0 mg/ml): 99%; inhibition of protein synthesis occuring on wild type ribosomes [31]: effectively inhibit protein synthesis
[4S-(4alpha,12aalpha)]-4,7-Bis(dimethylamino)-1,4,4a,5,5a,6,11,12a-octahydro-3,10, 12,12a-tetrahydroxy-9-[[[(3-methoxypropyl)amino]acetyl]amino]-1,11-dioxo-2-naphthacenecarboxamide dihydrochloride | 1 | 4 | 2 | 1 | 2 | 1 | 1 | 1 | 1 | 1 | 1 | 0.5 | 16 | 32 | 0.25 | 1 | 0.5 | 8 | 2 | 0.5 | MIC [9]: 0.12 µg/mL; MIC [32]: 0.5 µg/mL; MIC [23]: 16 µg/mL; MIC [24]: 16 µg/mL; MIC [33]: 0.5 µg/mL; MIC [25]: 16 µg/mL; MIC [26]: 1 µg/mL; MIC [27]: 2 µg/mL; MIC [28]: 0.5 µg/mL; MIC [34]: 0.25 µg/mL; reversibility of binding to the ribosome [29]: bind reversibly; % Inhibition Wild Type S30 ([31]; Conc. 0.06 mg/ml): 88%; inhibition of protein synthesis occuring on wild type ribosomes [31]: effectively inhibit protein synthesis
[4S-(4alpha,12aalpha)]-4,7-Bis(dimethylamino-1,4,4a,5,5a,6,11,12a-octahydro-3,10, 12,12a-tetrahydroxy-9-[[[(2-(methoxyethyl)amino]acetyl]amino]-1,11-dioxo-2-naphthacenecarboxamide dihydrochloride | 2 | 8 | 2 | 4 | 2 | 2 | 2 | 2 | 2 | 2 | 2 | 1 | > 32 | > 32 | 0.5 | 0.5 | 1 | 16 | 2 | 0.5 | MIC [1]: 2 µg/mL; MIC [32]: 0.5 µg/mL; MIC [23]: 32 µg/mL; MIC [24]: 32 µg/mL; MIC [33]: 0.5 µg/mL; MIC [25]: 32 µg/mL; MIC [26]: 1 µg/mL; MIC [27]: 2 µg/mL; MIC [28]: 0.5 µg/mL; reversibility of binding to the ribosome [29]: bind reversibly; % Inhibition Wild Type S30 ([31]; Conc. 0.06 mg/ml): 92%; % Inhibition Wild Type S30 ([31]; Conc. 1.0 mg/ml): 98%; inhibition of protein synthesis occuring on wild type ribosomes [31]: effectively inhibit protein synthesis
[4S-(4alpha,12aalpha)]-9-[[[(2,2-Diethoxyethyl)amino]acetyl]amino]-4,7-bis(dimethylamino)-1,4,4a,5,5a,6,11,12a-octahydro-3,10, 12,12a-tetrahydroxy-1,11-dioxo-2-naphthacenecarboxamide dihydrochloride [Compound C] | 8 | > 32 | 8 | 16 | 4 | 8 | 8 | 4 | 8 | 8 | 8 | 4 | > 32 | > 32 | 0.25 | 1 | 1 | 8 | 1 | 0.5 | MIC [1]: 16 µg/mL; MIC [9]: 0.5 µg/mL; MIC [32]: 1 µg/mL; MIC [23]: 8 µg/mL; MIC [24]: 16 µg/mL; MIC [33]: 0.5 µg/mL; MIC [25]: 16 µg/mL; MIC [26]: 1 µg/mL; MIC [27]: 2 µg/mL; MIC [28]: 1 µg/mL; MIC [34]: 0.5 µg/mL; reversibility of binding to the ribosome [29]: bind reversibly; % Inhibition Wild Type S30 ([31]; Conc. 0.06 mg/ml): 88%; % Inhibition Wild Type S30 ([31]; Conc. 1.0 mg/ml): 98%; inhibition of protein synthesis occuring on wild type ribosomes [31]: effectively inhibit protein synthesis
